Values joined by “and” are separate entries in the source; they are usually repeats but may differ in a detail not shown here. Equal values may be shown once. Inconclusive results and toxic doses are left out. How the source made its calls: active means survival T/C of 150% or more; inactive means T/C below 125% in these data.
Tested on: P388 leukemia ip, CD2F1 mice, survival T/C
Test: NCI In Vivo Anticancer Drug Screen. Data for tumor model P388 Leukemia (intraperitoneal) in CD2F1 (CDF1) mice
Conditions: endpoint: median survival time, higher = longer survival
Procedure, shortened: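 Mice carrying the transplanted tumor received test compound or vehicle. Survival was recorded in each group, and the value is the treated-group measurement divided by that of the vehicle-treated control group.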

[1] = dose: 60.0 mg/kg/injection, schedule: Q01DX005 (ip), vehicle: saline with Tween-80
[2] = dose: 120.0 mg/kg/injection, schedule: Q01DX005 (ip), vehicle: saline with Tween-80
[3] = dose: 240.0 mg/kg/injection, schedule: Q01DX005 (ip), vehicle: saline with Tween-80
[4] = dose: 60.0 mg/kg/injection, schedule: Q01DX005 (ip), vehicle: Klucel (hydroxypropylcellulose) (HPC)
[5] = dose: 120.0 mg/kg/injection, schedule: Q01DX005 (ip), vehicle: Klucel (hydroxypropylcellulose) (HPC)
[6] = dose: 240.0 mg/kg/injection, schedule: Q01DX005 (ip), vehicle: Klucel (hydroxypropylcellulose) (HPC)
[7] = dose: 50.0 mg/kg/injection, schedule: Q01DX005 (ip), vehicle: Klucel (hydroxypropylcellulose) (HPC)
[8] = dose: 100.0 mg/kg/injection, schedule: Q01DX005 (ip), vehicle: Klucel (hydroxypropylcellulose) (HPC)
[9] = dose: 100.0 mg/kg/injection, schedule: Q01DX005 (ip), vehicle: saline with Tween-80
[10] = dose: 200.0 mg/kg/injection, schedule: Q01DX005 (ip), vehicle: Klucel (hydroxypropylcellulose) (HPC)
[11] = dose: 200.0 mg/kg/injection, schedule: Q01DX005 (ip), vehicle: saline with Tween-80
[12] = dose: 50.0 mg/kg/injection, schedule: Q01DX009 (ip), vehicle: Klucel (hydroxypropylcellulose) (HPC)
[13] = dose: 100.0 mg/kg/injection, schedule: Q01DX009 (ip), vehicle: Klucel (hydroxypropylcellulose) (HPC)
[14] = dose: 200.0 mg/kg/injection, schedule: Q01DX009 (ip), vehicle: Klucel (hydroxypropylcellulose) (HPC)
[15] = dose: 50.0 mg/kg/injection, schedule: Q01DX005 (ip), vehicle: saline with Tween-80

Measured: T/C

C=NN(C)C
inactive: dose: 2.39 mg/kg/injection, schedule: Q01DX009 (ip), vehicle: Klucel (hydroxypropylcellulose) (HPC) 95 % of control | dose: 4.75 mg/kg/injection, schedule: Q01DX009 (ip), vehicle: Klucel (hydroxypropylcellulose) (HPC) 102 % of control | dose: 9.5 mg/kg/injection, schedule: Q01DX009 (ip), vehicle: Klucel (hydroxypropylcellulose) (HPC) 103 % of control | dose: 19.0 mg/kg/injection, schedule: Q01DX009 (ip), vehicle: Klucel (hydroxypropylcellulose) (HPC) 105 % of control

CC1(C)OC(=O)C(CC(=O)O)O1 (stereo unspecified)
inactive: dose: 60.0 mg/kg/injection, schedule: Q01DX005 (ip), vehicle: saline 105 % of control | dose: 120.0 mg/kg/injection, schedule: Q01DX005 (ip), vehicle: saline 100 % of control | dose: 240.0 mg/kg/injection, schedule: Q01DX005 (ip), vehicle: saline 100 % of control

O=C(CCCCCCCC(=O)NO)NO
inactive: [1] 95 % of control | [2] 100 % of control | [3] 105 % of control

Cc1ccc(SCc2cn(C3CC(O)C(CO)O3)c(=O)[nH]c2=O)cc1 (stereo unspecified)
inactive: [4] 99 % of control | [5] 95 % of control | [6] 92 % of control

[N-]=[N+]=Nc1cc(-c2ccccc2)nc2cc3c(cc12)OCO3
inactive: [1] 97 % of control | [2] 105 % of control | [3] 108 % of control

O=C(O)[C@H](Cc1ccccc1)N1C(=O)c2ccccc2C1=O
inactive: dose: 50.0 mg/kg/injection, schedule: Q01DX005 (ip), vehicle: DMSO 105 % of control | [7] 109 % of control | dose: 100.0 mg/kg/injection, schedule: Q01DX005 (ip), vehicle: DMSO 100 % of control | [8] 105 % of control | [9] 99 % of control | dose: 125.0 mg/kg/injection, schedule: Q01DX001 (ip), vehicle: saline with Tween-80 102 % of control | dose: 200.0 mg/kg/injection, schedule: Q01DX005 (ip), vehicle: DMSO 100 % of control | [10] 101 % of control | [11] 107 % of control | dose: 250.0 mg/kg/injection, schedule: Q01DX001 (ip), vehicle: saline with Tween-80 95 % of control | dose: 400.0 mg/kg/injection, schedule: Q01DX005 (ip), vehicle: DMSO 100 % of control | dose: 400.0 mg/kg/injection, schedule: Q01DX005 (ip), vehicle: saline with Tween-80 105 % of control | dose: 500.0 mg/kg/injection, schedule: Q01DX001 (ip), vehicle: saline with Tween-80 100 % of control and 105 % of control | dose: 800.0 mg/kg/injection, schedule: Q01DX005 (ip), vehicle: DMSO 107 % of control

O=C(Oc1ccccc1OC(=O)c1ccccc1)c1ccccc1
inactive: dose: 6.25 mg/kg/injection, schedule: Q01DX009 (ip), vehicle: saline with Tween-80 108 % of control | dose: 12.5 mg/kg/injection, schedule: Q01DX009 (ip), vehicle: saline with Tween-80 102 % of control | dose: 25.0 mg/kg/injection, schedule: Q01DX009 (ip), vehicle: saline with Tween-80 106 % of control | dose: 50.0 mg/kg/injection, schedule: Q01DX009 (ip), vehicle: saline with Tween-80 108 % of control

CCCC(NC(=O)C(C)N)C(=O)O (stereo unspecified)
inactive: [12] 107 % of control | [13] 95 % of control | [14] 102 % of control | dose: 400.0 mg/kg/injection, schedule: Q01DX009 (ip), vehicle: Klucel (hydroxypropylcellulose) (HPC) 102 % of control

O=C1NC(O)c2cc(F)ccc2O1 (stereo unspecified)
inactive: dose: 25.0 mg/kg/injection, schedule: Q01DX005 (ip), vehicle: saline with Tween-80 104 % of control | [15] 105 % of control and 110 % of control | [9] 111 % of control and 115 % of control | [11] 111 % of control

CCOC(=O)/C=C(\C(=O)OCC)N(O)C(=O)CN1C(=O)c2ccccc2C1=O
inactive: dose: 50.0 mg/kg/injection, schedule: Q01DX001 (ip), vehicle: saline with Tween-80 106 % of control | dose: 100.0 mg/kg/injection, schedule: Q01DX001 (ip), vehicle: saline with Tween-80 105 % of control | dose: 200.0 mg/kg/injection, schedule: Q01DX001 (ip), vehicle: saline with Tween-80 98 % of control | dose: 400.0 mg/kg/injection, schedule: Q01DX001 (ip), vehicle: saline with Tween-80 93 % of control

CCC1CCC(=O)NC1=O (stereo unspecified)
inactive: [1] 103 % of control | [2] 103 % of control | [3] 98 % of control

Cc1nc2c(sc3ccccc3n2C)c2nc3c(sc4ccccc4n3C)c(C)c12
inactive: [15] 92 % of control | [9] 90 % of control | [11] 86 % of control

NC(C(=O)O)C(=O)c1ccccc1 (stereo unspecified)
inactive: dose: 100.0 mg/kg/injection, schedule: Q01DX009 (ip), vehicle: saline with Tween-80 100 % of control | dose: 200.0 mg/kg/injection, schedule: Q01DX009 (ip), vehicle: saline with Tween-80 100 % of control | dose: 400.0 mg/kg/injection, schedule: Q01DX009 (ip), vehicle: saline with Tween-80 118 % of control

NCCNc1ncnc2ccc(Cl)cc12
inactive: [15] 97 % of control | [9] 93 % of control | [11] 92 % of control

Cc1cc(C)n(P2(n3nc(C)cc3C)=NP(n3nc(C)cc3C)(n3nc(C)cc3C)=NP(n3nc(C)cc3C)(n3nc(C)cc3C)=N2)n1
inactive: [15] 98 % of control | [9] 98 % of control | [11] 99 % of control

CC1=Nc2ccccc2NC2(C1)C(C1COC(C)(C)O1)OC1OC(C)(C)OC12 (stereo unspecified)
inactive: [15] 95 % of control | [9] 99 % of control | [11] 100 % of control

CN1CCC(C(C)(C)C)CC1
inactive: dose: 25.0 mg/kg/injection, schedule: Q01DX005 (ip), vehicle: Klucel (hydroxypropylcellulose) (HPC) 89 % of control | [7] 94 % of control | [8] 93 % of control | [10] 98 % of control

COc1cccc(C(Cc2ccccc2)NCc2ccccc2)c1O (stereo unspecified)
inactive: [15] 105 % of control | [9] 103 % of control | [11] 101 % of control

CN1C(=O)C(=O)N(Cc2ccco2)C1=O
inactive: [12] 97 % of control | [13] 100 % of control | [14] 101 % of control

O=C(O)C1C2CC3CC2C(C3)C1C(=O)O (stereo unspecified)
inactive: [4] 100 % of control | [5] 100 % of control | [6] 99 % of control

COC(=O)C1(O)OCC(O)C(O)C1O (stereo unspecified)
inactive: dose: 50.0 mg/kg/injection, schedule: Q01DX005 (ip), vehicle: saline 100 % of control | dose: 100.0 mg/kg/injection, schedule: Q01DX005 (ip), vehicle: saline 105 % of control | dose: 200.0 mg/kg/injection, schedule: Q01DX005 (ip), vehicle: saline 100 % of control

O=C(O)C1C2OC2C2OC2C1C(=O)O (stereo unspecified)
inactive: dose: 25.0 mg/kg/injection, schedule: Q01DX001 (ip), vehicle: Klucel (hydroxypropylcellulose) (HPC) 89 % of control | dose: 50.0 mg/kg/injection, schedule: Q01DX001 (ip), vehicle: Klucel (hydroxypropylcellulose) (HPC) 92 % of control | dose: 100.0 mg/kg/injection, schedule: Q01DX001 (ip), vehicle: Klucel (hydroxypropylcellulose) (HPC) 88 % of control

C[n+]1ccc2ccccc2c1-c1c2ccccc2cc[n+]1C
inactive: dose: 12.5 mg/kg/injection, schedule: Q01DX001 (ip), vehicle: saline 115 % of control | dose: 25.0 mg/kg/injection, schedule: Q01DX001 (ip), vehicle: saline 101 % of control | dose: 50.0 mg/kg/injection, schedule: Q01DX001 (ip), vehicle: saline 99 % of control
